Laboratory results reported in paper PMC7722354, “7-Substituted 2-Nitro-5,6-dihydroimidazo[2,1-b][1,3]oxazines: Novel Antitubercular Agents Lead to a New Preclinical Candidate for Visceral Leishmaniasis” (Journal of Medicinal Chemistry, 2017).
Converted amounts (≈) assume the structure as drawn. Where two headings read alike, the source gives them in different places. Marks after values point to notes of the source that are not given here.

Experiments:
[1] = tested on: Leishmania donovani; assay: L. don amastigote mouse macrophage-based luciferase assay (CDRI); assay type: cell-based; conditions: in mouse macrophages, single test (CDRI)
[2] = tested on: Leishmania infantum; assay: L. inf growth inhibition in mouse macrophages (LMPH); assay type: cell-based; conditions: Macrophage, mean of at least two determinations
[3] = tested on: Trypanosoma cruzi; assay: T. cruzi growth inhibition on MRC-5 cells (LMPH); assay type: cell-based; conditions: MRC5
[4] = tested on: human lung fibroblasts (MRC-5 cells); assay: cytotoxicity toward MRC-5 cells (LMPH); assay type: cell-based; conditions: MRC5
[5] = tested on: M. tb, strain H37Rv; assay: MABA minimum inhibitory concentration assay (aerobic); assay type: cell-based, Mycobacterium tuberculosis
[6] = tested on: M. tb, strain H37Rv; assay: LORA minimum inhibitory concentration assay (hypoxic); assay type: cell-based; conditions: Mycobacterium tuberculosis
[7] = kinetic aqueous solubility (Method A); assay type: physicochemical
[8] = tested on: L. donovani; assay: acute VL infection assay (L. don mouse model, LSHTM); conditions: Leishmania donovani, po, 120 h; 50 mg/kg orally once daily 5 days; liver parasite burden; read-out: in vivo efficacy against L. don (mouse), % inhibition
[9] = tested on: Leishmania donovani; design: method as in PMID 26901446; conditions: in mouse macrophages; cited from earlier work
[10] = tested on: Salmonella strains (TA98 and TA100)
Description: Ames Test. […] Two Salmonella strains (TA98 and TA100) were employed, both in the presence and absence of metabolic activation (rat liver S9). Positive controls (2-aminoanthracene, 2-nitrofluorene, and sodium azide) and a negative (DMSO solvent) control were included.

[11] = tested on: human lung fibroblasts (MRC-5 cells); design: method as in PMID 26901446; conditions: cytotoxicity; cited from earlier work
[12] = physchem
[13] = tested on: Caco-2; conditions: cited from earlier work
[14] = tested on: L. donovani; design: method as in PMID 26901446; conditions: cited from earlier work
[15] = design: method as in PMID 26901446; conditions: mice, cited from earlier work
[16] = tested on: L. donovani; conditions: L. don hamster model, 50 mg/kg, 5 days oral dosing
Protocol: Groups of hamsters having an appropriate infection grading (5–15 amastigotes/100 spleen cell nuclei) were treated with test compounds, starting on day 17 and dosing orally once per day for 5 days, according to the usual procedure.[10] Post-treatment splenic biopsies taken 12 days after the first dose were employed to determine the intensity of infection, as previously reported.[10]

[17] = mouse pharmacokinetics; assay type: in vivo; conditions: mice, oral 40 mg/kg
[18] = Mycobacterium tuberculosis, H37RV, aerobic, read-out: MIC MABA
[19] = water, pH 7, kinetic, water (pH 7), 20 °C, read-out: aq solubility pH 7
[20] = Mycobacterium tuberculosis, H37RV, read-out: MIC MABA, aerobic
[21] = 0.1 M HCl, pH 1, kinetic, 0.1 M HCl (pH 1), 20 °C, read-out: aq solubility pH 1

| SMILES | IC50 [1] [nM] | IC50 [2] [nM] | IC50 [3] [nM] | IC50 [4] [µM] | MIC [5, 18] [µM] | MIC [6] [µM] | also measured |
| --- | --- | --- | --- | --- | --- | --- | --- |
| O=[N+]([O-])c1cn2c(n1)OC(COc1ncc(-c3ccc(F)cc3)cn1)CC2 (stereo not shown) [compound 129] | 100 | 290 | 170 | > 64 | 0.02 to 0.04 (≈ 0.00743 to 0.0149 µg/mL) | 1.7 (≈ 0.631 µg/mL) | MIC ([5]; aerobic, read-out: MIC MABA): 0.04 µM (≈ 0.0149 µg/mL); solubility at 15 min [7, 19]: 1.8 µg/mL (≈ 4.85 µM); inhibition in vivo at 50 mg/kg [8]: 85% |
| C[C@]1(COc2ccc(OC(F)(F)F)cc2)Cn2cc([N+](=O)[O-])nc2O1 [compound 4] |  |  |  |  |  |  | IC50 [9]: 30 nM; mutagenic effect (Ames test) [10]: no; IC50 [11]: > 64 µM; logD [12]: 3.1; permeability Papp A to B [13]: 22.6 × 10^–6 cm/s; permeability Papp B to A [13]: 24.7 × 10^–6 cm/s |
| CC1(COc2ccc(OC(F)(F)F)cc2)Cn2cc([N+](=O)[O-])nc2O1 (racemic) [rac-4] |  |  |  |  |  |  | % inhibition, L. don mouse model ([14]; 6.25 mg/kg po daily for 5 d): 99%; ED50 ([14]; L. don mouse model): 3.0 mg/kg; AUClast ([15]; intravenous 1 mg/kg): 1.69 μg·;h/mL; C0 ([15]; intravenous 1 mg/kg): 0.88 µg/mL; CL ([15]; intravenous 1 mg/kg): 9.5 mL/min/kg; Vdss ([15]; intravenous 1 mg/kg): 1.7 L/kg; t1/2 ([15]; intravenous 1 mg/kg): 2.2 h; AUClast ([15]; oral 25 mg/kg): 33.5 μ·h/mL; Cmax ([15]; oral 25 mg/kg): 4.1 µg/mL; F (oral bioavailability) ([15]; oral 25 mg/kg): 79%; Tmax ([15]; oral 25 mg/kg): 4.0 h |
| O=[N+]([O-])c1cn2c(n1)OC(COc1ncc(-c3ccc(F)nc3)cn1)CC2 (stereo not shown) [compound 132] | 530 | > 64000 | 3300 | > 64 | 0.24 (≈ 0.0894 µg/mL) | 21 (≈ 7.82 µg/mL) |  |
| CC1(CN2CCC(Oc3ccc(F)cc3)CC2)CCn2cc([N+](=O)[O-])nc2O1 (stereo not shown) [compound 154] | 220 | 320 | 590 | > 64 | 0.23 (≈ 0.0898 µg/mL) | 48 (≈ 18.7 µg/mL) |  |
| O=[N+]([O-])c1cn2c(n1)OC(COc1cccc(-c3ccc(F)cc3F)n1)CC2 (stereo not shown) [compound 102] | 250 | 4000 | 230 | > 64 |  | > 128 | MIC [5, 20]: > 128 µM |
| O=[N+]([O-])c1cn2c(n1)OC(CN1CCC(c3ccc(F)cc3)CC1)CC2 (stereo not shown) [compound 147] | 880 | 870 | 2900 | > 64 | 2.1 (≈ 0.757 µg/mL) | 11 (≈ 3.96 µg/mL) |  |
| O=[N+]([O-])c1cn2c(n1)OC(COc1ccc(-c3ccc(F)cn3)cn1)CC2 (stereo not shown) [compound 105] | 60 | 50000 | 340 | > 64 | 0.15 (≈ 0.0557 µg/mL) | 11 (≈ 4.08 µg/mL) |  |
| CC1(CN2CCN(C(=O)c3ccc(F)cc3)CC2)CCn2cc([N+](=O)[O-])nc2O1 (stereo not shown) [compound 159] | 2800 | 6500 | 2800 | > 64 | 93 (≈ 37.5 µg/mL) | > 128 |  |
| CC1(COc2ccc(-c3ccc(F)nc3)cc2)CCn2cc([N+](=O)[O-])nc2O1 (stereo not shown) [compound 56] | 120 | 160 | 300 | > 64 | 0.29 (≈ 0.111 µg/mL) | 2.7 (≈ 1.04 µg/mL) |  |
| O=[N+]([O-])c1cn2c(n1)OC(COc1ccc(-c3ccc(F)cc3F)cn1)CC2 (stereo not shown) [compound 62] | 70 | 37 | 30 | > 64 | 0.1 (≈ 0.0388 µg/mL) | 2.4 (≈ 0.932 µg/mL) | solubility at 15 min [7, 21]: 1.5 µg/mL (≈ 3.86 µM); solubility at 15 min [7, 19]: 0.13 µg/mL (≈ 0.335 µM) |
| O=[N+]([O-])c1cn2c(n1)OC(COCc1ccc(-c3ccc(F)cc3)cc1)CC2 (stereo not shown) [compound 25, 7-{[(4′-Fluoro[1,1′-biphenyl]-4-yl)methoxy]methyl}-2-nitro-6,7-dihydro-5H-imidazo[2,1-b][1,3]oxazine] | 20 | 170 | 530 | > 64 | 0.08 (≈ 0.0307 µg/mL) | 1.3 (≈ 0.498 µg/mL) |  |
| CC1(COC(=O)N2CCN(c3ccc(F)cc3)CC2)CCn2cc([N+](=O)[O-])nc2O1 (stereo not shown) [compound 161] | 290 | 720 | 3900 | > 64 | 3.4 (≈ 1.43 µg/mL) | 8.4 (≈ 3.52 µg/mL) |  |
| CC1(CN2CCC(c3ccc(F)cc3)CC2)CCn2cc([N+](=O)[O-])nc2O1 (stereo not shown) [compound 149] | 1000 | 320 | 870 | > 64 | 0.22 (≈ 0.0824 µg/mL) | 8.3 (≈ 3.11 µg/mL) |  |
| O=[N+]([O-])c1cn2c(n1)OC(COc1ccc(-c3ccc(F)cc3)cc1)CC2 (stereo not shown) [compound 49] | 10 |  |  |  |  | > 128 | MIC [5, 20]: 0.18 µM (≈ 0.0665 µg/mL); % inhibition of parasite infection in the spleen [16]: 51% |
| O=[N+]([O-])c1cn2c(n1)OC(COc1cnc(-c3ccc(F)cc3)nc1)CC2 (stereo not shown) [compound 139] | 70 | 210 | 260 | 62 | 0.27 (≈ 0.1 µg/mL) | 20 (≈ 7.43 µg/mL) | solubility at 15 min [7, 19]: 0.59 µg/mL (≈ 1.59 µM) |
| O=[N+]([O-])c1cn2c(n1)OC(COc1cccc(-c3ccc(F)nc3F)n1)CC2 (stereo not shown) [compound 119] | 250 | 6700 | 130 | > 64 | 4.3 (≈ 1.67 µg/mL) | 10 (≈ 3.89 µg/mL) |  |
| O=[N+]([O-])c1cn2c(n1)OC(COc1ccc(-c3ccc(F)nc3)cc1)CC2 (stereo not shown) [compound 55, 7-{[4-(6-Fluoropyridin-3-yl)phenoxy]methyl}-2-nitro-6,7-dihydro-5H-imidazo[2,1-b][1,3]oxazine] | > 10000 | 83 | 27 | > 64 | 0.24 (≈ 0.0889 µg/mL) | 3.5 (≈ 1.3 µg/mL) | solubility at 15 min [7, 19]: 0.36 µg/mL (≈ 0.972 µM) |
| CC1(COc2ccc(-c3ccc(F)cc3)cc2)CCn2cc([N+](=O)[O-])nc2O1 (stereo not shown) [compound 52] | 200 | 340 | 350 | > 64 | 0.085 (≈ 0.0326 µg/mL) | 1.4 (≈ 0.537 µg/mL) |  |
| O=[N+]([O-])c1cn2c(n1)OC(COCc1ccc(-c3ccc(OC(F)(F)F)cc3)cc1)CC2 (stereo not shown) [compound 28] | 190 | 400 | 2100 | > 64 | 0.055 (≈ 0.0247 µg/mL) | 1.5 (≈ 0.674 µg/mL) | solubility at 15 min ([7]; water, pH 7, kinetic, pH 7, read-out: solubility at pH 7): ~0.058 µg/mL (≈ 0.129 µM); solubility at 15 min [7, 19]: 0.058 µg/mL (≈ 0.129 µM); inhibition in vivo at 50 mg/kg [8]: 49%; AUCinf (extrapolated) [17]: 47.1^e μ·h/mL; Cmax [17]: 3.3 µg/mL; Tmax [17]: 8.0 h; t1/2 [17]: 5.2 h |
| CC1(COCc2ccc(-c3ccc(F)cc3)cc2)CCn2cc([N+](=O)[O-])nc2O1 (stereo not shown) [compound 27] | 220 | 1800 | 840 | > 64 | 0.085 (≈ 0.0338 µg/mL) | 0.61 (≈ 0.242 µg/mL) |  |
| CC1(COc2ccc(-c3ccc(OC(F)(F)F)cc3)nc2)CCn2cc([N+](=O)[O-])nc2O1 (stereo not shown) [compound 96] | 650 | 4000 | 250 | > 64 | 0.05 (≈ 0.0225 µg/mL) | 0.88 (≈ 0.396 µg/mL) |  |
| CC1(COc2ccc(-c3ccc(F)cn3)cn2)CCn2cc([N+](=O)[O-])nc2O1 (stereo not shown) [compound 106] | 150 | 340 | 250 | > 64 | 0.4 (≈ 0.154 µg/mL) | 9.5 (≈ 3.66 µg/mL) |  |
| CC1(COc2ccc(-c3ccc(F)cc3F)nc2)CCn2cc([N+](=O)[O-])nc2O1 (stereo not shown) [compound 92] | 310 | 170 | 270 | > 64 | 0.4 (≈ 0.161 µg/mL) | 4.9 (≈ 1.97 µg/mL) |  |
| O=[N+]([O-])c1cn2c(n1)OC(COc1ccc(-c3ccc(F)cc3)nn1)CC2 (stereo not shown) [compound 123] | 70 | 8400 | 670 | > 64 | 0.35 (≈ 0.13 µg/mL) | 23 (≈ 8.54 µg/mL) |  |
| CC1(CN2CCN(c3ccc(F)cc3)CC2)CCn2cc([N+](=O)[O-])nc2O1 (stereo not shown) [compound 144] | 700 | 730 | 1300 | > 64 | 0.34 (≈ 0.128 µg/mL) | 6.8 (≈ 2.55 µg/mL) |  |
| O=[N+]([O-])c1cn2c(n1)OC(COc1cccc(-c3ccc(F)cc3)n1)CC2 (stereo not shown) [compound 99] | 310 | 140 | 160 | 59 | 1.7 (≈ 0.63 µg/mL) | 3 (≈ 1.11 µg/mL) | solubility at 15 min [7, 21]: 0.56 µg/mL (≈ 1.51 µM); solubility at 15 min [7, 19]: 0.027 µg/mL (≈ 0.0729 µM) |
| O=[N+]([O-])c1cn2c(n1)OC(COc1cnc(-c3ccc(F)cc3)cn1)CC2 (stereo not shown) [compound 126] | 150 | 710 | 4700 | > 64 | 0.15 (≈ 0.0557 µg/mL) | > 128 |  |
